Measurements: the supplement of paper PMC10307832

Experiments:
Assay in all cases: relative viability (nuclei count vs DMSO), 5 days (fraction); higher = more cells survive
NCI-H1437 = tested on: NCI-H1437
In short: (§1)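 A single step with final 0.05% Triton X-100, 1% formaldehyde and 1 ug/ml Hoechst fixed the cells and stained nuclei 5 days after treatment. Lung cancer cell lines in 1536-well plates had been treated by pin tool the day after seeding with one drug alone or a fixed anchor-drug dose plus five library-drug doses (not always all listed) in √10 steps, and nuclei were counted on 4× images. Relative viability is the ratio of nuclei in treated wells to nuclei in vehicle wells, taken as the median of duplicate plates.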

HCC-366 = tested on: HCC-366
In short: as §1

H3255 = tested on: H3255
In short: as §1

LC-2-ad = tested on: LC-2-ad
In short: as §1

PC-14 = tested on: PC-14
In short: as §1

NCI-H661 = tested on: NCI-H661
In short: as §1

NCI-H1666 = tested on: NCI-H1666
In short: as §1

NCI-H2087 = tested on: NCI-H2087
In short: as §1

HCC-15 = tested on: HCC-15
In short: as §1

ABC-1 = tested on: ABC-1
In short: as §1

LXF-289 = tested on: LXF-289
In short: as §1

HCC-827 = tested on: HCC-827
In short: as §1

UMC-11 = tested on: UMC-11
In short: as §1

LCLC-103H = tested on: LCLC-103H
In short: as §1

COR-L23 = tested on: COR-L23
In short: as §1

NCI-H2085 = tested on: NCI-H2085
In short: as §1

NCI-H1975 = tested on: NCI-H1975
In short: as §1

PC-3 [JPC-3] = tested on: PC-3 [JPC-3]
In short: as §1

NCI-H23 = tested on: NCI-H23
In short: as §1

NCI-H2228 = tested on: NCI-H2228
In short: as §1

NCI-H2009 = tested on: NCI-H2009
In short: as §1

## Cc1csc(=NC2CCCCC2)n1/N=C/c1ccc(O)c(O)c1O [MIM1] + CC(C)C[C@H](NC(=O)[C@H](Cc1ccccc1)NC(=O)c1cnccn1)B(O)O [Bortezomib] (partner 0.002 µM)
NCI-H1437; first compound 0.2 µM
  relative viability: 0.441
NCI-H1437; first compound 0.6325 µM
  relative viability: 0.427
NCI-H1437; first compound 2 µM
  relative viability: 0.536
NCI-H1437; first compound 6.325 µM
  relative viability: 0.221
NCI-H1437; first compound 20 µM
  relative viability: 0.112
HCC-366; first compound 0.2 µM
  relative viability: 1.02
HCC-366; first compound 0.6325 µM
  relative viability: 0.994
HCC-366; first compound 2 µM
  relative viability: 0.793
HCC-366; first compound 6.325 µM
  relative viability: 0.998
HCC-366; first compound 20 µM
  relative viability: 0.0323
H3255; first compound 0.2 µM
  relative viability: 0.861
H3255; first compound 0.6325 µM
  relative viability: 0.634
H3255; first compound 2 µM
  relative viability: 0.666
H3255; first compound 6.325 µM
  relative viability: 0.538
H3255; first compound 20 µM
  relative viability: 0.24
LC-2-ad; first compound 0.2 µM
  relative viability: 1.06
LC-2-ad; first compound 0.6325 µM
  relative viability: 0.545
LC-2-ad; first compound 2 µM
  relative viability: 0.986
LC-2-ad; first compound 6.325 µM
  relative viability: 0.383
LC-2-ad; first compound 20 µM
  relative viability: 0.201
PC-14; first compound 0.2 µM
  relative viability: 0.751
PC-14; first compound 0.6325 µM
  relative viability: 0.882
PC-14; first compound 2 µM
  relative viability: 0.779
PC-14; first compound 6.325 µM
  relative viability: 0.692
PC-14; first compound 20 µM
  relative viability: 0.192
NCI-H661; first compound 0.2 µM
  relative viability: 0.843
NCI-H661; first compound 0.6325 µM
  relative viability: 0.861
NCI-H661; first compound 2 µM
  relative viability: 0.648
NCI-H661; first compound 6.325 µM
  relative viability: 0.453
NCI-H661; first compound 20 µM
  relative viability: 0.221
NCI-H1666; first compound 0.2 µM
  relative viability: 0.863
NCI-H1666; first compound 0.6325 µM
  relative viability: 0.916
NCI-H1666; first compound 2 µM
  relative viability: 0.722
NCI-H1666; first compound 6.325 µM
  relative viability: 0.568
NCI-H1666; first compound 20 µM
  relative viability: 0.249
NCI-H2087; first compound 0.2 µM
  relative viability: 0.753
NCI-H2087; first compound 0.6325 µM
  relative viability: 0.743
NCI-H2087; first compound 2 µM
  relative viability: 0.666
NCI-H2087; first compound 6.325 µM
  relative viability: 0.586
NCI-H2087; first compound 20 µM
  relative viability: 0.498
HCC-15; first compound 0.2 µM
  relative viability: 1.05
HCC-15; first compound 0.6325 µM
  relative viability: 0.911
HCC-15; first compound 2 µM
  relative viability: 1.06
HCC-15; first compound 6.325 µM
  relative viability: 0.36
HCC-15; first compound 20 µM
  relative viability: 0.267
ABC-1; first compound 0.2 µM
  relative viability: 0.33
ABC-1; first compound 0.6325 µM
  relative viability: 0.299
ABC-1; first compound 2 µM
  relative viability: 0.298
ABC-1; first compound 6.325 µM
  relative viability: 0.309
ABC-1; first compound 20 µM
  relative viability: 0.231
LXF-289; first compound 0.2 µM
  relative viability: 0.986
LXF-289; first compound 0.6325 µM
  relative viability: 0.791
LXF-289; first compound 2 µM
  relative viability: 1.03
LXF-289; first compound 6.325 µM
  relative viability: 0.826
LXF-289; first compound 20 µM
  relative viability: 0.634
HCC-827; first compound 0.2 µM
  relative viability: 1.09
HCC-827; first compound 0.6325 µM
  relative viability: 0.9
HCC-827; first compound 2 µM
  relative viability: 1.07
HCC-827; first compound 6.325 µM
  relative viability: 0.402
HCC-827; first compound 20 µM
  relative viability: 0.465
UMC-11; first compound 0.2 µM
  relative viability: 0.646
UMC-11; first compound 0.6325 µM
  relative viability: 0.389
UMC-11; first compound 2 µM
  relative viability: 0.774
UMC-11; first compound 6.325 µM
  relative viability: 0.364
UMC-11; first compound 20 µM
  relative viability: 0.145
LCLC-103H; first compound 0.2 µM
  relative viability: 0.974
LCLC-103H; first compound 0.6325 µM
  relative viability: 0.959
LCLC-103H; first compound 2 µM
  relative viability: 1.05
LCLC-103H; first compound 6.325 µM
  relative viability: 0.955
LCLC-103H; first compound 20 µM
  relative viability: 0.938
COR-L23; first compound 0.2 µM
  relative viability: 1.02
COR-L23; first compound 0.6325 µM
  relative viability: 1.04
COR-L23; first compound 2 µM
  relative viability: 0.969
COR-L23; first compound 6.325 µM
  relative viability: 0.659
COR-L23; first compound 20 µM
  relative viability: 0.418
NCI-H2085; first compound 0.2 µM
  relative viability: 1.08
NCI-H2085; first compound 0.6325 µM
  relative viability: 0.994
NCI-H2085; first compound 2 µM
  relative viability: 0.986
NCI-H2085; first compound 6.325 µM
  relative viability: 0.952
NCI-H2085; first compound 20 µM
  relative viability: 0.989
NCI-H1975; first compound 0.2 µM
  relative viability: 0.428
NCI-H1975; first compound 0.6325 µM
  relative viability: 0.381
NCI-H1975; first compound 2 µM
  relative viability: 0.377
NCI-H1975; first compound 6.325 µM
  relative viability: 0.231
NCI-H1975; first compound 20 µM
  relative viability: 0.221
PC-3 [JPC-3]; first compound 0.2 µM
  relative viability: 0.862
PC-3 [JPC-3]; first compound 0.6325 µM
  relative viability: 0.7
PC-3 [JPC-3]; first compound 2 µM
  relative viability: 0.77
PC-3 [JPC-3]; first compound 6.325 µM
  relative viability: 0.703
PC-3 [JPC-3]; first compound 20 µM
  relative viability: 0.496
NCI-H23; first compound 0.2 µM
  relative viability: 1.08
NCI-H23; first compound 2 µM
  relative viability: 0.702
NCI-H23; first compound 6.325 µM
  relative viability: 0.851
NCI-H23; first compound 20 µM
  relative viability: 0.167
NCI-H2228; first compound 0.2 µM
  relative viability: 1.02
NCI-H2228; first compound 0.6325 µM
  relative viability: 1.09
NCI-H2228; first compound 2 µM
  relative viability: 1.09
NCI-H2228; first compound 6.325 µM
  relative viability: 0.414
NCI-H2228; first compound 20 µM
  relative viability: 0.246
NCI-H2009; first compound 0.2 µM
  relative viability: 1.01
NCI-H2009; first compound 0.6325 µM
  relative viability: 0.956
NCI-H2009; first compound 2 µM
  relative viability: 1.02
NCI-H2009; first compound 6.325 µM
  relative viability: 0.529
NCI-H2009; first compound 20 µM
  relative viability: 0.106
